# Assays:
# [1] = target: T1, Neuropeptide Y receptor type 1 (Homo sapiens) (UniProt P25929); test: Antagonist activity at recombinant human NPY1R assessed as inhibition of agonist-induced cAMP levels at 10 uM by HTRF assay; format: functional
# T1 sequence (whole entry): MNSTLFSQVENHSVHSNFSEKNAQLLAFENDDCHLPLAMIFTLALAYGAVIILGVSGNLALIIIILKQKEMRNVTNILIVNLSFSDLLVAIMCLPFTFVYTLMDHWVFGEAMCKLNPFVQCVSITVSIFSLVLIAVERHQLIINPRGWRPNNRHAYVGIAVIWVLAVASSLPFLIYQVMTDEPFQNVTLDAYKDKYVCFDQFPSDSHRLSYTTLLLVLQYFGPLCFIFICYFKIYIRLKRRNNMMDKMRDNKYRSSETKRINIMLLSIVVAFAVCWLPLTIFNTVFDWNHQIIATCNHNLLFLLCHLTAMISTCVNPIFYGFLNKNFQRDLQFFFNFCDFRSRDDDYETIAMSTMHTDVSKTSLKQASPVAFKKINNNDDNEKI
# [2] = target: Vasopressin V1a receptor (Homo sapiens) (UniProt P37288); test: Antagonist activity at recombinant human V1A receptor assessed as inhibition of agonist-induced effect at 10 uM by aequorin reporter based assay; format: functional
# Chain of Vasopressin V1a receptor (Homo sapiens) (P37288 whole entry, looked up): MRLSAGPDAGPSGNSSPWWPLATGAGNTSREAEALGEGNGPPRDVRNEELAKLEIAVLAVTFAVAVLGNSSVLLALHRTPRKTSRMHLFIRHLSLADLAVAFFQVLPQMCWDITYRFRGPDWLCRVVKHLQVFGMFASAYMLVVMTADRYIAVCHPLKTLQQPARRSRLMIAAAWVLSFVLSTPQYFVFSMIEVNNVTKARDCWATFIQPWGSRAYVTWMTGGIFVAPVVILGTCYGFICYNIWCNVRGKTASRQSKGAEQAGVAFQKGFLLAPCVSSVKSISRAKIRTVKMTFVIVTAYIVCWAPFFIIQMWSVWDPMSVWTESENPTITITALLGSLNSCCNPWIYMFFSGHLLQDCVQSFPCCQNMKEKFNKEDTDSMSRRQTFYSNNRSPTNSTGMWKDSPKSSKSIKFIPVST
# [3] = target: Mu-type opioid receptor (Homo sapiens) (UniProt P35372); test: Antagonist activity at human mu-type opioid receptor assessed as inhibition of agonist-induced effect at 10 uM by GTPgamma[35S] binding-based assay; format: functional
# Chain of Mu-type opioid receptor (Homo sapiens) (P35372 whole entry): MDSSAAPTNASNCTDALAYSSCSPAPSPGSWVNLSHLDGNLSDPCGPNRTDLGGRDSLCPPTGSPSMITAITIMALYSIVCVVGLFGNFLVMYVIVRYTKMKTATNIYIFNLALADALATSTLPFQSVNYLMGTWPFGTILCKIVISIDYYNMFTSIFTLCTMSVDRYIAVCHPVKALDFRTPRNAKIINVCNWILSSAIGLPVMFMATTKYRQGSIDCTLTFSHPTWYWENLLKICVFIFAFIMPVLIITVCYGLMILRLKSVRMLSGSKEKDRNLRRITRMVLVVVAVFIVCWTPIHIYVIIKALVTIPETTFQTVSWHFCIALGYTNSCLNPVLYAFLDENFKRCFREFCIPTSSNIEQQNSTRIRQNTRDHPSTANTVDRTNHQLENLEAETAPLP
# [4] = target: T2, Vasoactive intestinal polypeptide receptor 1 (Homo sapiens) (UniProt P32241); test: Antagonist activity at recombinant human VPAC1 receptor assessed as inhibition of agonist-induced effect at 10 uM by aequorin reporter based assay; format: functional
# T2 sequence (whole entry): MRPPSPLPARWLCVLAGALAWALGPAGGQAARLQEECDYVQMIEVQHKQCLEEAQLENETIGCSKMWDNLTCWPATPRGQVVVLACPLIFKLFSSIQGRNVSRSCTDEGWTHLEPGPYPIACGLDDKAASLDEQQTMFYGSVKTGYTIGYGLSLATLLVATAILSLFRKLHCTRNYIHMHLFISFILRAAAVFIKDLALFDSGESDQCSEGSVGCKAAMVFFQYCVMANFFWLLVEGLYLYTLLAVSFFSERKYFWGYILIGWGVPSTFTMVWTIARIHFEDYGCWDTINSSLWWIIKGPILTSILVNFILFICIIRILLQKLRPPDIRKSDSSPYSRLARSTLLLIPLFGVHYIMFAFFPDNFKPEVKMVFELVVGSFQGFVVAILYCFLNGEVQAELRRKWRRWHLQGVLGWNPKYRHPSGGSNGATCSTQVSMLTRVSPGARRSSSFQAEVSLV
# [5] = target: D(1A) dopamine receptor (Homo sapiens) (UniProt P21728); test: Agonist activity at recombinant human dopamine D1 receptor assessed as induction of cAMP levels at 10 uM by HTRF assay relative to agonist; format: functional
# Chain of D(1A) dopamine receptor (Homo sapiens) (P21728 whole entry): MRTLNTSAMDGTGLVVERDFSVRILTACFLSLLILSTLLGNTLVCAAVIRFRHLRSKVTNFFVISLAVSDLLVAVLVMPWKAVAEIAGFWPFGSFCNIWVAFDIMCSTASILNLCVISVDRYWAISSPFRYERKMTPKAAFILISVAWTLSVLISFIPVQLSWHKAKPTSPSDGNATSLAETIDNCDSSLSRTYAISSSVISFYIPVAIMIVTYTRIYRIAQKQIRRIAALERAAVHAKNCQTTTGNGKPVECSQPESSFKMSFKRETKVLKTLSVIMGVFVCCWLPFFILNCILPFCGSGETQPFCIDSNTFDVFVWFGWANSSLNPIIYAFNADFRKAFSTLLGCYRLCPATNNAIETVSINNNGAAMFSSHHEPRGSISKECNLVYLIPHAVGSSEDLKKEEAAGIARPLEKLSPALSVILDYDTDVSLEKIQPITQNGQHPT
# [6] = system: S1R (sigma-1 receptor); test: Selectivity index, ratio of IC50 for human SH-SY5Y cells to Ki for S1R in human Jurkat cell membranes; format: toxicity, cell-based
# [7] = target: Delta-type opioid receptor (Homo sapiens) (UniProt P41143); test: Antagonist activity at human delta-type opioid receptor assessed as inhibition of agonist-induced effect at 10 uM by GTPgamma[35S] binding-based assay; format: functional
# Chain of Delta-type opioid receptor (Homo sapiens) (P41143 whole entry): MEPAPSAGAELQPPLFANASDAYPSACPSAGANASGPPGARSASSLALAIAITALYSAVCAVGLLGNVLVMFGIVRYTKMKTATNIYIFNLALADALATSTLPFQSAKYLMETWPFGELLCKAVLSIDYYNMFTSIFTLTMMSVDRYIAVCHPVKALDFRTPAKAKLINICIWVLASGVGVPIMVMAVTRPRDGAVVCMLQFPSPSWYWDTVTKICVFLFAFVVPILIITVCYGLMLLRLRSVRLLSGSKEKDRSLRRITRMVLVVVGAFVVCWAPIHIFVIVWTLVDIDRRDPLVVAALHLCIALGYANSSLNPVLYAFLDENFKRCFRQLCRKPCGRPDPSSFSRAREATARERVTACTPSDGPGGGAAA
# [8] = target: Kappa-type opioid receptor (Homo sapiens) (UniProt P41145); test: Agonist activity at recombinant human kappa-type opioid receptor at 10 uM by GTPgamma[35S] binding-based assay relative to agonist; format: functional
# Chain of Kappa-type opioid receptor (Homo sapiens) (P41145 whole entry): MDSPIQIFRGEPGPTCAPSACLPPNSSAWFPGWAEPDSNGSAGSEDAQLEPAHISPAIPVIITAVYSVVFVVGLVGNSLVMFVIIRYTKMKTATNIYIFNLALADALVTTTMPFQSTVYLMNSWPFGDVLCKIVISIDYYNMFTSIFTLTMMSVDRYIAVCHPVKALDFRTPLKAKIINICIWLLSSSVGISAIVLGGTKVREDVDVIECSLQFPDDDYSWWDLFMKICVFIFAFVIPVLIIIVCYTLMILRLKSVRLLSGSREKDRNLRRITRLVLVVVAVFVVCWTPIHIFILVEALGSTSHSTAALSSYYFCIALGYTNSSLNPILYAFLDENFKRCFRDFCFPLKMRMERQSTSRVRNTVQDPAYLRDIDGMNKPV
# [9] = target: Histamine H2 receptor (Homo sapiens) (UniProt P25021); test: Agonist activity at recombinant human histamine H2 receptor assessed as induction of cAMP levels at 10 uM by HTRF assay relative to agonist; format: functional
# Chain of Histamine H2 receptor (Homo sapiens) (P25021 whole entry): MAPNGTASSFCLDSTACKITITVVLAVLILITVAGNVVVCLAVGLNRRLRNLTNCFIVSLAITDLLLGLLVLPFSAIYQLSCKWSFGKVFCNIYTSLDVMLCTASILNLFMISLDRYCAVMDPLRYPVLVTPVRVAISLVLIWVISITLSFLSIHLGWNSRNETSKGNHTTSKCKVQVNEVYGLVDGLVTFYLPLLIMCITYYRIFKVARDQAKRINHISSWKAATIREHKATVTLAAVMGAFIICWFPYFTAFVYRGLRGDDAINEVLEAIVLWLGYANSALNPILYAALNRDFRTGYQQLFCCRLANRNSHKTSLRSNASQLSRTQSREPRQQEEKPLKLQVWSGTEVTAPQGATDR
# [10] = target: T3, Adenosine receptor A1 (Homo sapiens) (UniProt P30542); test: Agonist activity at recombinant human adenosine A1 receptor […] at 10 uM by HTRF assay relative to agonist; format: functional
# T3 sequence (whole entry): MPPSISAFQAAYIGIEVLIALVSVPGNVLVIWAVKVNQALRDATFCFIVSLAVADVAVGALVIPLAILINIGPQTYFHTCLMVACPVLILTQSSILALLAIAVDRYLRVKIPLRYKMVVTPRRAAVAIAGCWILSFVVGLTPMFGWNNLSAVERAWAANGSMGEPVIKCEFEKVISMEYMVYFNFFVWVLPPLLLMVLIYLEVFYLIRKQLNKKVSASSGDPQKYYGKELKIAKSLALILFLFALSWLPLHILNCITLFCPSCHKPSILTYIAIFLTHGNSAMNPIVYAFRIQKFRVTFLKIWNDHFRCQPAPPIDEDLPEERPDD
# [11] = target: Mu-type opioid receptor (Homo sapiens) (UniProt P35372); test: Agonist activity at recombinant human mu-type opioid receptor at 10 uM by GTPgamma[35S] binding-based assay relative to agonist; format: functional
# [12] = target: T4, Type-1 angiotensin II receptor (Homo sapiens) (UniProt P30556); test: Antagonist activity at recombinant human AT1 receptor assessed as inhibition of agonist-induced […] reporter based assay; format: functional
# T4 sequence (whole entry): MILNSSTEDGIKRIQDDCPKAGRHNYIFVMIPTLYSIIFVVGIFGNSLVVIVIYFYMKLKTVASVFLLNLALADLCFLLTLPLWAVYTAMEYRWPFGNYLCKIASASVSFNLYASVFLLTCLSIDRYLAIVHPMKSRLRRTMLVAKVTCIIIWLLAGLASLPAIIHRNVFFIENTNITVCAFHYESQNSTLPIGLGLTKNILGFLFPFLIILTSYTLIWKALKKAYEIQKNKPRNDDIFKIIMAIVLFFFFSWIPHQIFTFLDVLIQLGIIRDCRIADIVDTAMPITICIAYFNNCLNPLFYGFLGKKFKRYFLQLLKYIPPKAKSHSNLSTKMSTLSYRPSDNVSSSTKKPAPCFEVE
# [13] = target: Cannabinoid receptor 1 (Homo sapiens) (UniProt P21554); test: Antagonist activity at recombinant human CB1 receptor assessed as inhibition of agonist-induced cAMP induction at 10 uM by HTRF assay; format: functional
# Chain of Cannabinoid receptor 1 (Homo sapiens) (P21554 whole entry): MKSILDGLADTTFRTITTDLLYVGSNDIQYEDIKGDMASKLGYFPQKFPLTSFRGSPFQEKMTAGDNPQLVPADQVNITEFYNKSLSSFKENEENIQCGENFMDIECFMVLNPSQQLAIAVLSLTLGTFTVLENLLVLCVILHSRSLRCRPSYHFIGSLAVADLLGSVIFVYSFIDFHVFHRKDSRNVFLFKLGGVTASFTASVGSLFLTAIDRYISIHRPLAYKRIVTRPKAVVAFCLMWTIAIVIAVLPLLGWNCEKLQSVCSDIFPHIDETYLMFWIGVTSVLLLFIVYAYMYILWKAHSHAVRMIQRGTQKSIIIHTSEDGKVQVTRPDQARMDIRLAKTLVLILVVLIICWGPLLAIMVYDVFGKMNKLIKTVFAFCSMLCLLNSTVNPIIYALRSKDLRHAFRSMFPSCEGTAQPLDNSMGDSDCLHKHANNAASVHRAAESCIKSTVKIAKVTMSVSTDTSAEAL
# [14] = target: T5, Endothelin-1 receptor (Homo sapiens) (UniProt P25101); test: Antagonist activity at recombinant human ETA receptor assessed as inhibition of agonist induced effect at 10 uM by aequorin reporter based assay; format: functional
# T5 sequence (whole entry): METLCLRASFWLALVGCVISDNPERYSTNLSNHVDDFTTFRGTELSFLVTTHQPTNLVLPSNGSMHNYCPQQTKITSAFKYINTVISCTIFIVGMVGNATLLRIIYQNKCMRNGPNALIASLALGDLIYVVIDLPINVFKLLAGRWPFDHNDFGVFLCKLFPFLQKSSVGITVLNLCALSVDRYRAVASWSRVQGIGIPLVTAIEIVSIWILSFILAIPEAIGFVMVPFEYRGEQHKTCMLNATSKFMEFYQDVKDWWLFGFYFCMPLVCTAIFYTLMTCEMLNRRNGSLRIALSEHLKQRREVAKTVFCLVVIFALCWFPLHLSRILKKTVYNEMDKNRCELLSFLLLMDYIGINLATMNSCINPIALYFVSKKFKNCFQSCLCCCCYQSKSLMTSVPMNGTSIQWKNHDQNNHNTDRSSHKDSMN
SMILES,inhibition [1] [%],inhibition [2] [%],inhibition [3] [%],inhibition [4] [%],Activity [5] [%],inhibition [7] [%],Activity [8] [%],Activity [9] [%],Activity [10] [%],Activity [11] [%],inhibition [12] [%],inhibition [13] [%],inhibition [14] [%],selectivity ratio [6]
CN(CCNC(=O)c1ccc([N+](=O)[O-])cc1)Cc1ccccc1,-1,6,15,22,14,8,8,9,0,60,–,–,–,> 27800
CN(CCCNC(=O)c1ccc(C(F)(F)F)cc1)Cc1ccccc1,–,6,-1,31,-4,–,1,-7,-4,43,-2,10,2,–
CN(CCNC(=O)c1ccc(C#N)cc1)Cc1ccccc1,-2,9,9,3,9,0,5,-3,1,66,–,–,6,> 83300
CN(CCCNC(=O)c1ccc(Cl)cc1)CCc1ccccc1,-1,36,9,17,-6,6,-1,15,-13,22,11,1,–,> 23300
CN(CCCNC(=O)c1cccc(Br)c1)Cc1ccccc1,-5,14,29,31,-5,7,6,-3,-12,15,7,3,-9,> 25600
CN(CCNC(=O)c1ccc(Cl)cc1)Cc1ccccc1,-1,18,–,30,-4,18,5,-7,-11,62,21,4,-9,> 27800

# Now from value to molecule, other results behind:
inhibition [1] [%],inhibition [2] [%],inhibition [3] [%],inhibition [4] [%],Activity [5] [%],inhibition [7] [%],Activity [8] [%],Activity [9] [%],Activity [10] [%],Activity [11] [%],inhibition [12] [%],inhibition [13] [%],inhibition [14] [%],SMILES,selectivity ratio [6]
-4,–,8,7,-7,9,2,-10,-3,26,-3,5,-5,CN(CCCNC(=O)c1ccc(Cl)cc1)Cc1ccccc1,> 31200
-7,11,-4,0,-2,-5,-2,1,-3,31,-6,4,–,CCCc1ccc(C(=O)NCCCN(C)Cc2ccccc2)cc1,–
3,3,20,1,8,–,7,10,-6,16,20,-5,5,COc1cccc(C(=O)NCCCN(C)Cc2ccccc2)c1,–
6,6,-6,0,-1,5,2,-7,-9,31,17,5,0,CN(CCCNC(=O)c1ccc([N+](=O)[O-])cc1)Cc1ccccc1,–
1,-9,20,–,4,-2,8,9,-3,16,-10,-8,-1,COc1ccc(C(=O)NCCCN(C)Cc2ccccc2)cc1,–
-3,0,-9,4,-7,-5,3,-8,-8,39,–,-2,–,CN(CCCNC(=O)c1ccc(Br)cc1)Cc1ccccc1,–

# — ChEMBL document CHEMBL4130363, “Synthesis and pharmacological evaluation of benzamide derivatives as potent and selective sigma-1 protein ligands” (Eur J Med Chem, 2017)
